Results from publication PMC4278837, “A Cyclic Peptidic Serine Protease Inhibitor: Increasing Affinity by Increasing Peptide Flexibility” (PLoS ONE, 2014).
Bridge positions count the residues as written; N and C are the ends. Peptide text beside a SMILES is read from it.

What was measured:
huPA-H99Y [1] = molecular target: T1, huPA-H99Y (Homo sapiens, UniProt P00749, H272Y); experiment: Ki for inhibition of huPA-H99Y, chromogenic substrate S-2444; format: biochemical; settings: 37°C; means ± S.D.; read-out: K i for inhibition of huPA-H99Y
T1 construct: To ensure that the uPAs purified from the conditioned media were completely in the two-chain form, they were treated with plasmin; hexa-His (C); made in house; host or cells: HEK293 6E suspension cells
From the text: (§1) Determination of Ki values
(§2) The initial reaction velocities were monitored at an absorbance of 405 nm. The inhibition constants (K i) were subsequently determined from the non-linear regression analyses of plots for V i/V o versus [I]0, using Equation 2, derived under assumption of competitive inhibition:
(§3) [drawing 2] (2) where V i and V 0 are the reaction velocities in the presence and absence of inhibitor, respectively; [S]0 and [I]0 are the substrate and inhibitor concentrations, respectively; K M is K M for substrate hydrolysis by each protease. In Equation 2, it is assumed that [S]free ≈ [S]0 and [I]free ≈ [I]0.

huPA-H99Y R35A = molecular target: T2, huPA-H99Y R35A (Homo sapiens, UniProt P00749, H272Y/R198A); experiment: Ki for inhibition of huPA-H99Y-R35A, chromogenic substrate; format: biochemical; settings: 37°C; means ± S.D.; read-out: K i for inhibition of huPA-H99Y-R35A
T2 construct: To ensure that the uPAs purified from the conditioned media were completely in the two-chain form, they were treated with plasmin; hexa-His (C); made in house; host or cells: HEK293 6E suspension cells
From the text: as §1, §2, §3

huPA-H99Y V41A = molecular target: T3, huPA-H99Y V41A (Homo sapiens, UniProt P00749, H272Y/V208A); experiment: Ki for inhibition of huPA-H99Y-V41A, chromogenic substrate; format: biochemical; settings: 37°C; means ± S.D.; read-out: K i for inhibition of huPA-H99Y-V41A
T3 construct: To ensure that the uPAs purified from the conditioned media were completely in the two-chain form, they were treated with plasmin; hexa-His (C); made in house; host or cells: HEK293 6E suspension cells
From the text: as §1, §2, §3

huPA-H99Y K143A = molecular target: T4, huPA-H99Y K143A (Homo sapiens, UniProt P00749, H272Y/K320A); experiment: Ki for inhibition of huPA-H99Y-K143A, chromogenic substrate; format: biochemical; settings: 37°C; means ± S.D.; read-out: K i for inhibition of huPA-H99Y-K143A
T4 construct: To ensure that the uPAs purified from the conditioned media were completely in the two-chain form, they were treated with plasmin; hexa-His (C); made in house; host or cells: HEK293 6E suspension cells
From the text: as §1, §2, §3

muPA K41A = molecular target: T5, muPA K41A (Mus musculus, UniProt P06869, K210A); experiment: Ki for inhibition of muPA-K41A, chromogenic substrate; format: biochemical, murine; settings: means ± S.D.; read-out: K i for inhibition of muPA-K41A
T5 construct: To ensure that the uPAs purified from the conditioned media were completely in the two-chain form, they were treated with plasmin; hexa-His (C); made in house; host or cells: HEK293 6E suspension cells
T5 sequence (P06869 180-433 K210A): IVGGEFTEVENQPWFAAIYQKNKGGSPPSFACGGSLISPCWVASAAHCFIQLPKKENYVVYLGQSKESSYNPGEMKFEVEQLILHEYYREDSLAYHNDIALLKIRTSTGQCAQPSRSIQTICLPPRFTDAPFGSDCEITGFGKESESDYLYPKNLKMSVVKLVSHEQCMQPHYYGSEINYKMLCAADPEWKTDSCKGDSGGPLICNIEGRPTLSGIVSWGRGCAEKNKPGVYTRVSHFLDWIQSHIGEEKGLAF
T5 sequence (P06869 21-178 partner limits assumed): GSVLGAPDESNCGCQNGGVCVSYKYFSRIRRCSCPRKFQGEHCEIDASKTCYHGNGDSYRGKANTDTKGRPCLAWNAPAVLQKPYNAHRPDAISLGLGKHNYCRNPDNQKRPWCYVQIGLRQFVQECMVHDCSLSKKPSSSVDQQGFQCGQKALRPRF
From the text: as §1, §2, §3

muPA Y99A = molecular target: T6, muPA Y99A (Mus musculus, UniProt P06869, Y274A); experiment: Ki for inhibition of muPA-Y99A, chromogenic substrate; format: biochemical, murine; settings: means ± S.D.; read-out: K i for inhibition of muPA-Y99A
T6 construct: To ensure that the uPAs purified from the conditioned media were completely in the two-chain form, they were treated with plasmin; hexa-His (C); made in house; host or cells: HEK293 6E suspension cells
T6 sequence (P06869 180-433 Y274A): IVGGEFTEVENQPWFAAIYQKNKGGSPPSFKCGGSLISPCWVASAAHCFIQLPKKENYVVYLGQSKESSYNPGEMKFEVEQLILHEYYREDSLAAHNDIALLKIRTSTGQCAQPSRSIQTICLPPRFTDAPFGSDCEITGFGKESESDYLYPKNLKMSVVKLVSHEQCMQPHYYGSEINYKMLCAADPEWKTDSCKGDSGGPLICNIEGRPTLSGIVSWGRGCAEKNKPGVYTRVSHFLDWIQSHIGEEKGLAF
T6 sequence (P06869 21-178 partner limits assumed): as the sequence (P06869 21-178 partner limits assumed) above
From the text: as §1, §2, §3

muPA K143A = molecular target: T7, muPA K143A (Mus musculus, UniProt P06869, K322A); experiment: Ki for inhibition of muPA-K143A, chromogenic substrate; format: biochemical, murine; settings: means ± S.D.; read-out: K i for inhibition of muPA-K143A
T7 construct: To ensure that the uPAs purified from the conditioned media were completely in the two-chain form, they were treated with plasmin; hexa-His (C); made in house; host or cells: HEK293 6E suspension cells
T7 sequence (P06869 180-433 K322A): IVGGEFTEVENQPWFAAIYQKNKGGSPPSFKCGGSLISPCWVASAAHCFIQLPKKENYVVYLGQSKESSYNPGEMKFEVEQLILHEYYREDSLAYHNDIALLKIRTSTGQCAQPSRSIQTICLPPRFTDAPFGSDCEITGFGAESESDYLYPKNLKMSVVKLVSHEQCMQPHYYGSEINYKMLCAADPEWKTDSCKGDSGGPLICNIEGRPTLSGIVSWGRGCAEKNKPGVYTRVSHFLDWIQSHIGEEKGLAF
T7 sequence (P06869 21-178 partner limits assumed): as the sequence (P06869 21-178 partner limits assumed) above
From the text: as §1, §2, §3

muPA S190A = molecular target: T8, muPA S190A (Mus musculus, UniProt P06869, S373A); experiment: Ki for inhibition of muPA-S190A, chromogenic substrate; format: biochemical, murine; settings: means ± S.D.; read-out: K i for inhibition of muPA-S190A
T8 construct: To ensure that the uPAs purified from the conditioned media were completely in the two-chain form, they were treated with plasmin; hexa-His (C); made in house; host or cells: HEK293 6E suspension cells
T8 sequence (P06869 180-433 S373A): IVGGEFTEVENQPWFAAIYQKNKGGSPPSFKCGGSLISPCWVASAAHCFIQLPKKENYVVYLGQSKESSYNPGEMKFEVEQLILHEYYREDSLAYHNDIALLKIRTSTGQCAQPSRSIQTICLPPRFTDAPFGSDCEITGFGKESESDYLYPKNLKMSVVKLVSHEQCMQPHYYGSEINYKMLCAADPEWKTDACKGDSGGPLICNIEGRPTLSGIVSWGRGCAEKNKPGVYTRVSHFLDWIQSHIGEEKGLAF
T8 sequence (P06869 21-178 partner limits assumed): as the sequence (P06869 21-178 partner limits assumed) above
From the text: as §1, §2, §3

muPA V213T = molecular target: T9, muPA V213T (Mus musculus, UniProt P06869, V396T); experiment: Ki for inhibition of muPA-V213T, chromogenic substrate; format: biochemical, murine; settings: means ± S.D.; read-out: K i for inhibition of muPA-V213T
T9 construct: To ensure that the uPAs purified from the conditioned media were completely in the two-chain form, they were treated with plasmin; hexa-His (C); made in house; host or cells: HEK293 6E suspension cells
T9 sequence (P06869 180-433 V396T): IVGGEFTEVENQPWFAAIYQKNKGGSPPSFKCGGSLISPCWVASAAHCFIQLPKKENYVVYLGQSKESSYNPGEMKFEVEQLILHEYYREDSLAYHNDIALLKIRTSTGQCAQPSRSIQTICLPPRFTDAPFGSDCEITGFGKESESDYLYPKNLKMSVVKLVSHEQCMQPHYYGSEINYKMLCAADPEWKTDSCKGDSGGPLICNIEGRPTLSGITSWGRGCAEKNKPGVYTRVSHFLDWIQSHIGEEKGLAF
T9 sequence (P06869 21-178 partner limits assumed): as the sequence (P06869 21-178 partner limits assumed) above
From the text: as §1, §2, §3

huPA-H99Y [2] = molecular target: T1, huPA-H99Y; experiment: Surface plasmon resonance analysis of peptide binding to huPA-H99Y; settings: SPR, 25°C, pH 7.4
Protocol: (§4) Surface plasmon resonance (SPR) analysis
(§5) To determine the equilibrium binding constants (KD), the association rate constants (kon) and dissociation rate constants (koff) for peptide binding to uPA, surface plasmon resonance analysis was performed on a Biacore T200 instrument (Biacore, Uppsala, Sweden). A CM5 chip was coupled with the uPA variant (muPA or huPAH99Y) to be analysed, by injecting a concentration of 30 µg/mL uPA in immobilization buffer (10 mM sodium acetate, pH 5.0), aiming for an immobilised level of approximately 500 response units (RU). Immobilisation was followed by surface blocking with ethanolamine. A reference cell was prepared in the same way, without coupling of uPA. Mupain-1 variants in HBS with 0.1% BSA, in a dilution series, were injected at a flow rate of 30 µL per min during 60 s at 25°C. Subsequently, the dissociation was monitored during 600 s. Kinetic constants (k on and k off) were calculated with the Biacore Evaluation Software, using the 1∶1 kinetic fit. The K D values were calculated as k off /k on.

muPA = molecular target: T10, muPA (Mus musculus, UniProt P06869); experiment: Surface plasmon resonance analysis of peptide binding to muPA; set-up: species or system murine; settings: SPR, 25°C, pH 7.4
T10 construct: To ensure that the uPAs purified from the conditioned media were completely in the two-chain form, they were treated with plasmin; hexa-His (C); made in house; host or cells: HEK293 6E suspension cells
T10 sequence (P06869 180-433 limits assumed): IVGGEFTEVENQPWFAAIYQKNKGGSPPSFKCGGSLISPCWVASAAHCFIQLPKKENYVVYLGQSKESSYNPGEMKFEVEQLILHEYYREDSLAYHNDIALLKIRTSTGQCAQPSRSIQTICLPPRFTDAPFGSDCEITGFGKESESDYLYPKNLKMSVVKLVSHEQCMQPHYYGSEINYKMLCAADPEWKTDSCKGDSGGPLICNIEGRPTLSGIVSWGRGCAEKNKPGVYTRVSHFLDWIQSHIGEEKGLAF
T10 sequence (P06869 21-178 partner limits assumed): as the sequence (P06869 21-178 partner limits assumed) above
Protocol: as §4, §5

huPA-H99Y [3] = molecular target: T11, huPA-H99Y (Homo sapiens, UniProt P00749, C299A/H272Y/N322Q); experiment: Isothermal titration calorimetry for binding to huPA-H99Y catalytic domain; settings: ITC, 25°C, pH 7.4
T11 construct: recombinant uPA catalytic domain (residues 159–411), harbouring a H99Y mutation; made in house; host or cells: Pichia pastoris X-33 (secreted)
Protocol: For these experiments, we used the catalytic domain of huPA-H99Y expressed in and purified from Pichia pastoris strain X-33 (see above). The protein was dissolved in and dialysed against a buffer of 20 mM sodium phosphate, pH 7.4, 140 mM NaCl. The protein concentration was determined by absorbance at 280 nm, using an extinction coefficient of 43810 M^−1cm^−1. The peptides were dissolved in the above-mentioned buffer. All isothermal titration calorimetry experiments were performed with a MicroCal^TM ITC200 instrument equilibrated to a temperature of 25°C (298oK). The concentration of uPA-H99Y catalytic domain used in the 200 µl sample cell was 5–50 µM, depending on the affinity of the ligand. Titrations were performed by injecting 2 µl of the ligand until the total syringe volume of 40 µl was spent. Titration of ligand into buffer was performed to obtain buffer correction. The equilibrium association constant KA and the reaction enthalpy ΔH were calculated by fitting the integrated titration peaks using a one-binding-site model in the ITC ORIGIN7 programme package. The following formulas for Gibbs free energy ΔG were used to analyse the measured energies
[drawing 4] (4) where R is the gas constant and T the absolute temperature. ΔS, the entropic change during the reaction, was calculated using equations 3 and 4 and the measured K A and ΔH values.

muPA wt = molecular target: T12, muPA wt (Mus musculus, UniProt P06869); settings: means ± S.D.; starred values reproduced from previous publications; ref Andersen et al., 2008; Hosseini et al., 2011; read-out: K i for inhibition of muPA wt; cited from earlier work
T12 construct: To ensure that the uPAs purified from the conditioned media were completely in the two-chain form, they were treated with plasmin; hexa-His (C); made in house; host or cells: HEK293 6E suspension cells
T12 sequence (P06869 180-433 limits assumed): as the sequence (P06869 180-433 limits assumed) above
T12 sequence (P06869 21-178 partner limits assumed): as the sequence (P06869 21-178 partner limits assumed) above

huPA-H99Y Q192A = huPA-H99Y Q192A (Homo sapiens, UniProt P00749, H272Y/Q373A); experiment: Ki for inhibition of huPA-H99Y-Q192A, chromogenic substrate; format: biochemical; set-up: To ensure that the uPAs purified from the conditioned media were completely in the two-chain form, they were treated with plasmin; hexa-His (C); made in house; host or cells: HEK293 6E suspension cells; settings: 37°C; means ± S.D.; read-out: K i for inhibition of huPA-H99Y-Q192A
From the text: as §1, §2, §3

**Q.** With `CC(=O)N[C@H]1CSSC[C@@H](C(N)=O)NC(=O)[C@H](CC(=O)O)NC(=O)[C@H](CC(C)C)NC(=O)[C@H](Cc2ccc(O)cc2)NC(=O)[C@H](CCCNC(=N)N)NC(=O)[C@H](C)NC(=O)[C@H](Cc2ccc(O)cc2)NC(=O)[C@H](C)NC(=O)[C@@H]2CCCN2C1=O` [Mupain-1 S5A, CPAYARYLDC] (Ac-CPAYARYLDC-NH2; disulfide 1-10) as the molecule, how does the Ki (huPA-H99Y [1]) read?
**A.** Its Ki is > 1000 µM.

**Q.** With `CC(=O)N[C@H]1CSSC[C@@H](C(N)=O)NC(=O)[C@H](CC(=O)O)NC(=O)[C@H](CC(C)C)NC(=O)[C@H](C)NC(=O)[C@H](CCCNC(=N)N)NC(=O)[C@H](CO)NC(=O)[C@H](Cc2ccc(O)cc2)NC(=O)[C@H](C)NC(=O)[C@@H]2CCCN2C1=O` [Mupain-1 Y7A, CPAYSRALDC] (Ac-CPAYSRALDC-NH2; disulfide 1-10) as the molecule, how does the Ki (huPA-H99Y [1]) read?
**A.** The Ki was 44 ± 3 µM.

**Q.** With `CC(=O)N[C@H]1CSSC[C@@H](C(N)=O)NC(=O)[C@H](C)NC(=O)[C@H](CC(C)C)NC(=O)[C@H](Cc2ccc(O)cc2)NC(=O)[C@H](CCCNC(=N)N)NC(=O)[C@H](CO)NC(=O)[C@H](Cc2ccc(O)cc2)NC(=O)[C@H](C)NC(=O)[C@@H]2CCCN2C1=O` [Mupain-1 D9A, CPAYSRYLAC] (Ac-CPAYSRYLAC-NH2; disulfide 1-10) as the molecule, how does the Ki (huPA-H99Y [1]) read?
**A.** The Ki was 5.99 ± 0.43 µM.

**Q.** What about the Ki (huPA-H99Y R35A) of the same molecule?
**A.** The Ki was 2680 ± 290 nM.

**Q.** What about the Ki (huPA-H99Y V41A) of the same molecule?
**A.** The Ki was 7.2 ± 1.44 µM.

**Q.** And the Ki (huPA-H99Y K143A)?
**A.** Its Ki is 8.74 ± 0.64 µM.

**Q.** And the Ki (muPA K41A)?
**A.** Its Ki is 270 ± 29 nM.

**Q.** What about the Ki (muPA Y99A) of the same molecule?
**A.** The Ki was 27.2 ± 3.3 µM.

**Q.** What about the Ki (muPA K143A) of the same molecule?
**A.** The Ki was 4.34 ± 0.64 µM.

**Q.** What about the Ki (muPA S190A) of the same molecule?
**A.** The Ki was 3.02 ± 0.33 µM.

**Q.** And the Ki (muPA V213T)?
**A.** The Ki was 373 ± 55 nM.

**Q.** What about the “k off, huPA-H99Y” value (huPA-H99Y [2]) of the same molecule?
**A.** The value was 36.6±0.21 (3) s^-1, ×10^2.

**Q.** What about the “k on, huPA-H99Y” value (huPA-H99Y [2]) of the same molecule?
**A.** Its value is 2.60±0.20 (3) M^-1s^-1, ×10^-5.

**Q.** What about the Kd (huPA-H99Y [2]; calculated as k off/k on, read-out: K D, huPA-H99Y) of the same molecule?
**A.** Its Kd is 1410 ± 110 nM.

**Q.** What about the “k off, muPA” value (muPA) of the same molecule?
**A.** The value was 4.01±0.31 (3) s^−1, ×10^2.

**Q.** What about the “k on, muPA” value (muPA) of the same molecule?
**A.** Its value is 0.985±0.169 (3) M^−1s^−1, ×10^−5.

**Q.** What about the Kd (huPA-H99Y [3]) of the same molecule?
**A.** The Kd was 1170 ± 300 nM.

**Q.** What about the Ki (muPA wt) of the same molecule?
**A.** The Ki was 890 ± 20 nM.

**Q.** What about the Ki (huPA-H99Y Q192A) of the same molecule?
**A.** The Ki was 4.85 ± 0.32 µM.

**Q.** With CPAYSRYLDC [Mupain-1 L8A] as the molecule, how does the Ki (huPA-H99Y [1]) read?
**A.** Its Ki is 19.1 ± 1.1 µM.
